Key:
[1] = tested on: allergen-induced airway eosinophilia; settings: Brown Norway rats, administered intrapulmonary; cited from earlier work
[2] = tested on: human peripheral blood mononuclear cells (PBMCs); test: LPS-induced TNFα release from human PBMCs/monocytes (sandwich ELISA); assay type: cell-based; settings: LPS 1 μg/ml
Procedure: The influence of R,R-glycopyrrolate in combination with PDE4 inhibitors on TNF secretion was investigated by using human peripheral blood mononuclear cells (PBMCs). The study was approved by our institutional Ethics Committee according to the International Declarations of Helsinki and Tokyo.
PBMCs were isolated from heparinized blood samples of healthy donors by density gradient centrifugation. An equal volume of Hanks buffer (Life Technologies, Heidelberg, Germany) is added to heparinized whole blood samples. 15 ml Histopaque-1077 (Sigma, Deisenhofen, Germany) are overlayed with a maximum of 40 ml of blood/Hanks mixture were centrifuged for 30 min at room temperature (2000 rpm). A visible band containing PBMCs is transferred to a fresh tube and washed twice with Hanks-buffer. Finally cells are seeded in RPMI 1640 Medium (Life Technologies, Heidelberg, Germany) with Glutamax I (Gibco BRL, Eggenstein) and 10% fetal calf serum (Boehringer Mannheim, Penzberg, Germany). After isolated, PBMCs were cultured in RPMI 1640 medium supplemented with 10% fetal calf serum (FCS) at 37° C. 5% CO2 overnight. […] by adherence method, non-adherent cells were removed by changing the medium.
Cells are re-suspended at 10^6 cells/ml and incubated in 500 μl volumes in 24-well tissue culture plates (Falcon Becton Dickinson Labware) at 37° C., 5% CO2. After pre-incubation with test substances (0.5 μl/500 μl medium) for 30 min, cells were stimulated with lipopolysaccharide (LPS) (1 μg/ml). […]
Cytokine measurements in culture supernatants are done by sandwich ELISA using matched antibody pairs (Pharmingen, Heidelberg, Germany). […] Plates are read at 450 nm (reference 570 nm) in a microplate reader (Dynatech). The results are expressed as a percentage of the control level of cytokines production by cells stimulated in the absence of the compound.

[3] = dog, in vivo, 15 mg/kg; cited from earlier work
[4] = tested on: M1-M3 receptors; settings: cited from earlier work
[5] = molecular target: M3 muscarinic receptors (Homo sapiens, UniProt P20309); settings: kinetics studies; cited from earlier work
M3 muscarinic receptors, sequence (P20309 whole entry): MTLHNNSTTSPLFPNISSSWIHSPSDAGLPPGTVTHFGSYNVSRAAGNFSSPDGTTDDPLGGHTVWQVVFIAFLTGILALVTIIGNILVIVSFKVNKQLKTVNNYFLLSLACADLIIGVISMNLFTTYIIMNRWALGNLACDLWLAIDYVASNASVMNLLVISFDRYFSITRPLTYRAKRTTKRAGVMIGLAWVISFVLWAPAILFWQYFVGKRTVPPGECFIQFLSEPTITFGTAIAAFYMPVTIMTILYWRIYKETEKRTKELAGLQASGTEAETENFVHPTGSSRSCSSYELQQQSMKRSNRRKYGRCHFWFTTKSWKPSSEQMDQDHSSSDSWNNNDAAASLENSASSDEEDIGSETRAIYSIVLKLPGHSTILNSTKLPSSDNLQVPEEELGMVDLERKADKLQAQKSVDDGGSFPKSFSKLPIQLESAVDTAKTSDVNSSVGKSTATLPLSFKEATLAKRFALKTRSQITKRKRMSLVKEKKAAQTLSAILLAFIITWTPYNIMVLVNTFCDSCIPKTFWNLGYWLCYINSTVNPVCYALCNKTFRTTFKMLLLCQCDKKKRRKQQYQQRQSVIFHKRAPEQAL

C[C@H]1C[C@H]2[C@@H]3CCC4=CC(=O)C=C[C@]4(C)[C@@]3(Cl)[C@@H](O)C[C@]2(C)[C@@]1(O)C(=O)CO [beclomethasone]
ID50 suppression of allergen-induced airway eosinophilia [1]: 0.1 µg/kg

C[N+]1(C)CC[C@@H](OC(=O)[C@](O)(c2ccccc2)C2CCCC2)C1.[Br-] [R,R-glycopyrrolate]
influence on LPS-induced TNFα release ([2]; compound alone, up to 10 μmol/l): did not influence

O=C(Nc1c(Cl)cncc1Cl)C(=O)c1cn(Cc2ccc(F)cc2)c2ccc(O)cc12 [AWD 12-281]
ID50 suppression of allergen-induced airway eosinophilia [1]: 7 µg/kg
emesis [3]: no emesis was induced

COc1ccc(C2CNC(=O)C2)cc1OC1CCCC1 (centres unmarked) [rolipram]
IC35 of TNFα release inhibition ([2]; rolipram alone): 68.9 ± 15.2 nM
IC35 of TNFα release inhibition with simultaneous addition of R,R-glycopyrrolate ([2]; rolipram plus 10 μmol/l R,R-glycopyrrolate, p=0.0151): 1.70 ± 1.18 nM

C[N+]1(C)CCC(OC(=O)C(O)(c2ccccc2)C2CCCC2)C1 (racemic) [Glycopyrrolate]
selectivity in binding to the M1-M3 receptors [4]: no selectivity
dissociation from M3 muscarinic receptors [5]: dissociates slowly
